Data taken from patent US8558011B2, “Cold menthol receptor-1 antagonists” (Janssen Pharmaceutica, NV, priority 2010, dated 2013).
Several values for one entry are separate records, joined by “and”; a condition that tells them apart may be missing. Equal values may be shown once.

Tests used:
canine TRPM8 = target: T1, canine TRPM8 (Canis lupus familiaris, UniProt Q1A7N1); test: In Vitro Canine TRPM8 Functional Assay (Ca2+-sensitive fluorescent dye, icilin activation, FLIPR/FDSS); format: cell-based; conditions: HEK293 cells stably expressing canine TRPM8, icilin activation; for % I (0.5 μM): compound at 0.5 μM; for IC50: eight-point dose-response; for % I (1 μM): compound at 1 μM
T1 construct: expressed in transfected cells
T1 sequence (Q1A7N1 1-1104): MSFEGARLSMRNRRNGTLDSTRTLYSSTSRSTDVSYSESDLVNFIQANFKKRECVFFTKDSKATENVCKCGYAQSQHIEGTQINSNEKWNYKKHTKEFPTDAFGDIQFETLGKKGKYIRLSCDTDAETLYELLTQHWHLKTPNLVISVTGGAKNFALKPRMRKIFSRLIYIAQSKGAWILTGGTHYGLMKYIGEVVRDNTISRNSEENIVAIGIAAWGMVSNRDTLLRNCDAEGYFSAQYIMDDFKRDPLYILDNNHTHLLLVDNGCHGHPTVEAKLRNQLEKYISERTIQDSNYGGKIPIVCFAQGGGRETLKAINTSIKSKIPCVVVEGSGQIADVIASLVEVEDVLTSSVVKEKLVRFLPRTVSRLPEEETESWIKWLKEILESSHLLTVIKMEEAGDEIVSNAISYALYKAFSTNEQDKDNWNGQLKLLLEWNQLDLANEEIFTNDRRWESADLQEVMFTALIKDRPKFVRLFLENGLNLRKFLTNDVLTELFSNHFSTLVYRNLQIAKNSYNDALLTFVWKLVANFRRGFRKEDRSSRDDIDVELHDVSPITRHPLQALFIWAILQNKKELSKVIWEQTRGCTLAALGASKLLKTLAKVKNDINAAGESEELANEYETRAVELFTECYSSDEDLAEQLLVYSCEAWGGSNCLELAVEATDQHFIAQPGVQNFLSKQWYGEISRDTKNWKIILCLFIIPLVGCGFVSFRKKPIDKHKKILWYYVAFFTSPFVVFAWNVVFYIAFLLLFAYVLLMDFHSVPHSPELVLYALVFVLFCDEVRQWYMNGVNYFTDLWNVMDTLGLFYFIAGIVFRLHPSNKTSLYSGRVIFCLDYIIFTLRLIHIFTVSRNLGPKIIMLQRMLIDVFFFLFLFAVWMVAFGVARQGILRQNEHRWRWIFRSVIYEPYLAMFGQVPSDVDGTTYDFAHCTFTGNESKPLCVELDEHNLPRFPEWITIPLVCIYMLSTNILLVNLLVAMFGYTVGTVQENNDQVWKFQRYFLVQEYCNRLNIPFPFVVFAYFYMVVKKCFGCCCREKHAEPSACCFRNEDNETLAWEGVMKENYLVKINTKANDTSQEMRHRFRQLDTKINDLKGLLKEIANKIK
Protocol: The functional activity of compounds of Formula (I) was determined by measuring changes in intracellular calcium concentration using a Ca^2+-sensitive fluorescent dye. The changes in fluorescent signal were monitored by a fluorescence plate reader, either a FLIPR™ (Molecular Devices) or FDSS (Hamamatsu).
HEK293 cells stably expressing canine TRPM8 were routinely grown as monolayers in Dulbecco's minimum essential medium supplemented with 10% FBS, 1 mM L-glutamine, 100 units/mL penicillin, 100 ug/mL streptomycin and 400 μg/mL G418. Cells were maintained in 5% CO2 at 37° C. At 24 hrs prior to assay, cells were seeded in clear-base poly-D-lysine coated 384-well plates (BD Biosciences, NJ, USA) at a density of 5,000 cells per well in culture medium and grown overnight in 5% CO2 at 37° C. On assay day, growth media was removed and cells were loaded with Calcium 3 Dye (Molecular Devices) for 35 min at 37° C., under 5% CO2 and then for 25 min at room temperature and atmosphere. Subsequently, cells were tested for agonist-induced increases in intracellular Ca^2+ levels using FLIPR™ or FDSS. Cells were challenged with a compound of Formula (I) (at varying concentrations) and intracellular Ca^2+ was measured for 5 min prior to the addition of icilin to all wells to achieve a final concentration which produces approximately an 80% maximal response.
Basal FI was subtracted prior to normalizing data to percent of maximal response. Curves were generated using the average of quadruplicate wells for each data point, were analyzed using nonlinear regression of either sigmoidal dose response or sigmoidal dose response (variable slope). Finally, the EC50 and IC50 values were calculated with the best-fit dose curve determined by GraphPad Prism.

[1] = test system: CFA-induced Paw Radiant Heat Hypersensitivity; test: CFA-induced paw radiant heat hypersensitivity; format: in vivo, rat
Protocol: Intraplantar injection of Complete Freund's Adjuvant (CFA) in rodents results in a long-lasting inflammatory reaction, characterized by a pronounced hypersensitivity to both thermal and mechanical stimuli. This hypersensitivity peaks between 24-72 hours following injection and can last for several weeks. […] This paradigm also may be conducted with a multiple dosing or a prophylactic dosing regime designed to alter the course of hyperalgesia development. This test predicts the analgesic, anti-allodynic and antihyperalgesic effect of numerous effective clinical agents, including NSAIDS such as acetaminophen, aspirin and ibuprofen, and opioids such as morphine.
Each rat was placed in a test chamber on a warm glass surface and allowed to acclimate for approximately 10 minutes. A radiant thermal stimulus (beam of light) was then focused through the glass onto the plantar surface of each hind paw in turn. The thermal stimulus was automatically shut off by a photoelectric relay when the paw was moved or when the cut-off time was reached (20 seconds for radiant heat at ˜5 Amps). An initial (baseline) response latency to the thermal stimulus was recorded for each animal prior to the injection of CFA. Twenty-four hours following intraplantar CFA injection, the response latency of the animal to the thermal stimulus was then re-evaluated and compared to the animal's baseline response time. […] Immediately following the post-CFA latency assessment, test compound or vehicle (usually Solutol, hydroxypropyl methylcellulose, hydroxypropyl beta-cyclodextrin or PEG-400) was administered i.p. or p.o. to rats. […] The percent reversal (% R) of hypersenstivitiy was calculated according to the following formula: % Reversal=(Treatment Response−CFA Response)/(Baseline Response−CFA Response)×100.

Structure (SMILES)	% I (0.5 μM) (canine TRPM8)	IC50 (canine TRPM8)	further results
CCOP(=O)(OCC)C(Cc1ccc(F)cc1)c1sc2ccccc2c1Br (centres unmarked) [Cpd 238, [1-(3-Bromo-benzo[b]thiophen-2-yl)-2-(4-fluoro-phenyl)-ethyl]-phosphonic acid diethyl ester]	104%	–	% Reversal ([1]; 30 mg/kg p.o., time 2 (h)): 56%
CCOP(=O)(OCC)C(Cc1ccc(SC)cc1)c1sc2ccccc2c1Cl (centres unmarked) [Cpd 299]	101%	0.141 µM	% Reversal ([1]; 30 mg/kg p.o., time 1 (h)): 23%
CC(C)OP(=O)(OC(C)C)C(Cc1ccc(F)c(F)c1)c1sc2ccccc2c1Cl (centres unmarked) [Cpd 12, [1-(3-Chloro-benzo[b]thiophen-2-yl)-2-(3,4-difluoro-phenyl)-ethyl]-phosphonic acid diisopropyl ester]	–	–	% I (1 μM) (canine TRPM8): 100%; % Reversal ([1]; 30 mg/kg i.p., time 1 h): 105%
CCOP(=O)(OCC)C(Cc1cccc(Cl)c1)c1sc2ccccc2c1Br (centres unmarked) [Cpd 137, [1-(3-Bromo-benzo[b]thiophene-2-yl)-2-(3-chloro-phenyl)-ethyl]-phosphonic acid diethyl ester]	102%	–	% Reversal ([1]; 30 mg/kg p.o., time 1 (h)): 34%
CCOP(=O)(OCC)C(Cc1ccc(F)c(Cl)c1)c1sc2ccccc2c1Br (centres unmarked) [Cpd 244]	103%	0.028 µM	% Reversal ([1]; 30 mg/kg p.o., time 2 (h)): 45%
CC(C)OP(=O)(OC(C)C)C(Cc1cccc(O)c1F)c1sc2ccccc2c1Br (centres unmarked) [Cpd 230]	97%	0.01 µM	–
CCOP(=O)(OCC)C(Cc1cc(OC)c(Cl)cc1F)c1sc2ccccc2c1Br (centres unmarked) [Cpd 164]	94%	0.082 µM	–
CCOP(=O)(OCC)C(Cc1ccc(F)c(F)c1)c1sc2ncccc2c1Br (centres unmarked) [Cpd 132, 1-[(3-Bromo-thieno[2,3-b]pyridin-2-yl)-2-(3,4-difluoro-phenyl)-ethyl]-phosphonic acid diethyl ester]	–	–	% I (1 μM) (canine TRPM8): 102%
CCOP(=O)(OCC)C(Cc1ccc(F)c(F)c1)c1oc2ccccc2c1C (centres unmarked) [Cpd 9, [2-(3,4-Difluoro-phenyl)-1-(3-methyl-benzofuran-2-yl)-ethyl]-phosphonic acid diethyl ester]	–	–	% I (1 μM) (canine TRPM8): 100%
CC(C)OP(=O)(OC(C)C)[C@H](Cc1ccc(F)c(F)c1)c1sc2ccccc2c1Br [Cpd 235, (R)-[1-(3-Bromo-benzo[b]thiophen-2-yl)-2-(3,4-difluoro-phenyl)-ethyl]-phosphonic acid diisopropyl ester]	56%	–	–
COc1c(F)c(F)c(CC(c2sc3ccccc3c2Br)P(=O)(OC(C)C)OC(C)C)c(F)c1F (centres unmarked) [Cpd 161]	103%	0.019 µM	–
CCOP(=O)(OCC)C(Cc1ccc(F)c(F)c1)c1sc2ccccc2c1-c1ccsc1 (centres unmarked) [Cpd 208]	104%	0.104 µM	–
CC(C)OP(=O)(OC(C)C)C(Cc1cccc(OC(F)(F)F)c1)c1sc2ccccc2c1Cl (centres unmarked) [Cpd 301]	102%	0.054 µM	–
CCOP(=O)(OCC)C(Cc1ccc(F)c(C(F)(F)F)c1)c1sc2ccccc2c1Cl (centres unmarked) [Cpd 298]	99%	0.085 µM	% Reversal ([1]; 30 mg/kg p.o., time 1 (h)): 20%
CCOP(=O)(OCC)C(Cc1c(F)c(F)c(OC)c(F)c1F)c1sc2ccccc2c1Br (centres unmarked) [Cpd 160]	87%	0.06 µM	–
CCOP(=O)(OCC)C(Cc1ccc(SC(F)(F)F)cc1)c1sc2ccccc2c1Br (centres unmarked) [Cpd 153]	103%	0.043 µM	–
CC(C)OP(=O)(OC(C)C)C(Cc1cccc(Cl)c1)c1sc2ccccc2c1Br (centres unmarked) [Cpd 166]	102%	0.018 µM and 0.014 µM	% I (1 μM) (canine TRPM8): 103%
CCOP(=O)(OCC)C(Cc1ccc(Cl)cc1)c1sc2ccccc2c1Cl (centres unmarked) [Cpd 293]	103%	0.156 µM	–
CCOP(=O)(OCC)C(Cc1ccc(F)c(F)c1)c1sc2ccccc2c1-c1ccccc1F (centres unmarked) [Cpd 216]	100%	0.126 µM	–
CCOP(=O)(OCC)C(Cc1ccc(F)c(F)c1)c1sc2ccccc2c1Br (centres unmarked) [Cpd 127, [1-(3-Bromo-benzo[b]thiophen-2-yl)-2-(3,4-difluoro-phenyl)-ethyl]-phosphonic acid dethyl ester]	–	–	% I (1 μM) (canine TRPM8): 100%; % Reversal ([1]; 30 mg/kg p.o., time 1 (h)): 88%
